Results as given in patent US20240335445A1, “Compounds and Compositions for Treating Fibrosis” (YALE UNIVERSITY, priority 2017, published 2024).

Legend:
Type in all cases: biochemical
MKP5 [1] = biological target: T1, MKP5 (Homo sapiens, UniProt Q9Y6W6); experiment: MKP-5 Malachite Green phosphate assay with dual phosphorylated peptide pTpY; details: for inhibition at 12.5 µM: read-out: % inhibition of MKP-5
T1 sequence (Q9Y6W6 1-482): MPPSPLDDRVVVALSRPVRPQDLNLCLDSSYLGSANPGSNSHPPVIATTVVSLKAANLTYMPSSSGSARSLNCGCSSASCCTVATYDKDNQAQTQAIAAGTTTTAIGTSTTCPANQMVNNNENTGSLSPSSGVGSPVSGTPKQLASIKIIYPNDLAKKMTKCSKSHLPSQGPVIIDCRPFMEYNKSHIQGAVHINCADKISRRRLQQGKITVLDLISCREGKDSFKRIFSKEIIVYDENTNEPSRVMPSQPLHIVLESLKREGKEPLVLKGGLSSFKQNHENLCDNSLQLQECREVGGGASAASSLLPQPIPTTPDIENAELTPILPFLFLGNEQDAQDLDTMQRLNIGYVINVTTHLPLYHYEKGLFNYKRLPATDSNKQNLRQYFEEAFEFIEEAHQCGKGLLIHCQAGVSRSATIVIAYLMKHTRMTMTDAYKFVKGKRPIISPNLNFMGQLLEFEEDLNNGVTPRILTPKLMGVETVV
Source text: In a non-limiting example, the assay comprises contacting a peptide comprising the sequence pThr-Gly-pTyr, the polypeptide comprising and/or consisting of the catalytic domain of MKP-5 (such as but not limited to residues 305-482 of SEQ ID NO:4), or an active fragment thereof, and the test compound. If the test compound is a MKP-5 inhibitor, it will inhibit the dephosphorylation of the peptide comprising the sequence pThr-Gly-pTyr. If the test compound is not a MKP-5 inhibitor, it will not inhibit the dephosphorylation of the peptide comprising the sequence pThr-Gly-pTyr. Dephosphorylation of that peptide can be evaluated qualitatively and/or quantitatively using any methods known in the art, such as but not limited to a Malachite Green Phosphate Assay. This assay provides a fast, reproducible, colorimetric method for measuring inorganic free phosphate in aqueous solutions. The assay method is based on the formation of a complex between malachite green molybdate and free orthophosphate that absorbs at 620-640 nm. This assay is a reliable and suitable means of detecting and quantifying minimal amounts of inorganic free phosphate and is amenable to high-throughput screening applications.
Compounds from the pilot collection consisting of Microsource GenPlus, Microsource Natural Product, NIH Clinical collections, ChemBridge DIVERSet, ChemBridge MicroFormats, Maybridge Diversity, and ChemBridge Amines and Alcohols were screened. Assay conditions were 1.5 μM MKP-5 and 25 μM dual phosphorylated peptide DDE (Nle) (pT) G (pY) VATR (10 μL total volume), incubated for 30 minutes at 37° C. followed by addition of 40 μL Malachite Green reagent. Z′ values are ˜0.7-0.8. Malachite green reagent was made by combining 30 mL 0.045% Malachite Green (Sigma #M-9636) with 20 mL 4.2% ammonium molybdate in 4 M HCl, shaking for at least 30 mins and adding 0.01% Tween 20.

MKP5 [2] = biological target: T1, MKP5; experiment: MKP5 EZReader assay with fluorescent mono-phosphorylated peptides
MKP5 [3] = biological target: T1, MKP5; experiment: MKP5 pNPP assay
MKP5 [4] = biological target: T1, MKP5; experiment: MKP-5 inhibition, assay not specified; details: read-out: IC50 against MKP-5
[5] = Kd (M) MKP5 EZREader fluor pT_Y, substrate fluor pT_Y (SEQ ID NO: 2)
[6] = Kd (M) MKP5 EZReader fluor_TpY, substrate fluor_TpY (SEQ ID NO: 1)

## CC(C)(C)C(=O)CSc1ncc2cnc3ccccc3c2n1 [YU241658]
MKP5 [1]
  inhibition at 12.5 µM: 15%

## CC(C)(C)C(=O)CSc1ncc2c(n1)-c1ccsc1CC2 [YU252252]
MKP5 [1]
  inhibition at 12.5 µM: 37%

## CSc1scc2c1-c1nc(SCC(=O)C(C)(C)C)ncc1CC2 [YU032149, 3,3-dimethyl-1-((9-(methylthio)-5,6-dihydrothieno[3,4-h]quinazolin-2-yl)thio)butan-2-one]
MKP5 [2]; [5]
  Kd: 1.13e-05 M
MKP5 [2]; [6]
  Kd: 1.75e-05 M
MKP5 [1]
  Kd: 6.25 µM
MKP5 [3]
  Kd: 4.23 µM
MKP5 [4]
  IC50: ~12 µM

## Cc1ccc(C)n1-c1ccc(C(=O)O)c(O)c1 [YU129641]
MKP5 [2]; [5]
  Kd: 1.41e-05 M
MKP5 [2]; [6]
  Kd: 1.04e-05 M
MKP5 [1]
  Kd: > 100 µM
MKP5 [3]
  Kd: > 200 µM

## O=c1cc2oc3cc(O)c(O)cc3c(-c3ccc([N+](=O)[O-])o3)c-2cc1O [YU109017]
MKP5 [2]; [5]
  Kd: 1.56e-05 M
MKP5 [2]; [6]
  Kd: 1.03e-05 M
MKP5 [1]
  Kd: > 100 µM
MKP5 [3]
  Kd: > 100 µM

## CC(=O)N1Cc2cnc(SCC(=O)C(C)(C)C)nc2-c2ccccc21 [YU241659]
MKP5 [1]
  inhibition at 12.5 µM: 12%

## O=C(O)c1ccc(C2Nc3c(-c4ccccc4)cccc3C3C=CCC32)cc1 (centres unmarked) [YU119284]
MKP5 [2]; [5]
  Kd: > 0.0002 M
MKP5 [2]; [6]
  Kd: > 0.0002 M
MKP5 [1]
  Kd: > 100 µM
MKP5 [3]
  Kd: > 200 µM
